# Experimental data reported in ChEMBL document CHEMBL1134929, “Synthesis and biological activity of potent heterocyclic thiol-based inhibitors of endothelin-converting enzyme-1” (Bioorg Med Chem Lett, 2002).
# Experiments:
# [1] = molecular target: T1, Endothelin-converting enzyme 1 (Homo sapiens, UniProt P42892); assay: In vitro inhibition of Endothelin-converting enzyme 1.
# T1 sequence (P42892 whole entry): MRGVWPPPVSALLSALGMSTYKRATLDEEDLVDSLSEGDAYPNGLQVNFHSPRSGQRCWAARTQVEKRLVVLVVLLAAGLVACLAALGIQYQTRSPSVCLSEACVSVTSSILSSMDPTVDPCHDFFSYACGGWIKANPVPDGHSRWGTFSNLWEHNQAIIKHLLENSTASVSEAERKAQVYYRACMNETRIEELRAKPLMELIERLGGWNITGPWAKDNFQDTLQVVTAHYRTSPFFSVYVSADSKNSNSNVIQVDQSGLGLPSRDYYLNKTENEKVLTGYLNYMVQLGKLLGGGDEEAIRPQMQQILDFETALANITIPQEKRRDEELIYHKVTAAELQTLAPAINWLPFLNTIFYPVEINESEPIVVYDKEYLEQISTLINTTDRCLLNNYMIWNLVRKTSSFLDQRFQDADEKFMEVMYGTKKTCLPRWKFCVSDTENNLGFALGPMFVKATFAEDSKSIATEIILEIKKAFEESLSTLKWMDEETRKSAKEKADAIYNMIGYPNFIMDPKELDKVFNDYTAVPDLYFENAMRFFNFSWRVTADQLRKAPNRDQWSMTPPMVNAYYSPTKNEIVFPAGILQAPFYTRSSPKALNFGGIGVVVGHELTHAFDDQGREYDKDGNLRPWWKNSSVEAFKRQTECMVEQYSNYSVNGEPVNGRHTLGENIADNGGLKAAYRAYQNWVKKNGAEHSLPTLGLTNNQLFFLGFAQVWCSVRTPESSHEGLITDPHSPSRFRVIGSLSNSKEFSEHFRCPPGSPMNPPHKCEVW
# Rattus norvegicus [2] = assay: Compound was evaluated for its ability to inhibit the Endothelin 1 induced pressor response in anesthetized rats iupon oral administration of 3 mg/kg at 4 hr post dosing; format: functional
# Rattus norvegicus [3] = assay: Compound was evaluated for its ability to inhibit the Endothelin 1 induced pressor response in anesthetized rats upon oral administration of 3 mg/kg at 0.5 hr post dosing; format: functional
# Rattus norvegicus [4] = assay: Compound was evaluated for its ability to inhibit the Endothelin 1 induced pressor response in anesthetized rats upon oral administration of 3 mg/kg at 2 hr post dosing; format: functional
# Rattus norvegicus [5] = assay: Compound was evaluated for its ability to inhibit the Endothelin 1 induced pressor response in anesthetized rats upon oral administration of 3 mg/kg at 8 hr post dosing; format: functional
# Rattus norvegicus [6] = assay: Compound was evaluated for its ability to inhibit the Endothelin 1 induced pressor response in rats upon oral administration of 3-30 mg/kg at 2 hr post dosing; format: functional
# Rattus norvegicus [7] = assay: Compound was evaluated for its ability to inhibit Endothelin 1 induced increase in mean arterial pressure (MAP) after 15 min of dosing (20 mg/kg) in rats.; format: functional, Artery
# Rattus norvegicus [8] = assay: Compound was evaluated for its ability to inhibit the Endothelin 1 induced pressor response in anesthetized rats intravenous administration of 10 mg/kg; format: functional
smiles,measurement,setting,value
CC(C)[C@H](S)C(=O)NC1(C(=O)NC(Cc2ccc(-c3cccc(N)c3)nc2)C(=O)O)CCCC1 (stereo partly specified),IC50,[1],64 nM
COC(=O)[C@H](Cc1ccc(-c2cccs2)nc1)NC(=O)C1(NC(=O)[C@H](CC(C)C)SC(C)=O)CCCC1,inhibition in vivo at 3 mg/kg,Rattus norvegicus [2],70%
same,inhibition in vivo at 3 mg/kg,Rattus norvegicus [3],90%
same,inhibition in vivo at 3 mg/kg,Rattus norvegicus [4],82%
same,inhibition in vivo at 3 mg/kg,Rattus norvegicus [5],34%
same,Inhibition,Rattus norvegicus [6],65%
CC(C)C[C@H](S)C(=O)NC1(C(=O)N[C@@H](Cc2ccc(-c3cccs3)nc2)C(=O)O)CCCC1,IC50,[1],9.5 nM
same,Increase in MAP,Rattus norvegicus [7],77%
same,inhibition in vivo at 10 mg/kg,Rattus norvegicus [8],61%
CC(C)[C@H](S)C(=O)NC1(C(=O)NC(Cc2ccc(-c3ccoc3)nc2)C(=O)O)CCCC1 (stereo partly specified),IC50,[1],39 nM
CC(C)[C@H](S)C(=O)NC1(C(=O)N[C@@H](Cc2ccc(-c3ccccc3)cc2)C(=O)O)CCCC1,inhibition in vivo at 10 mg/kg,Rattus norvegicus [8],40%
